Measured values reported in ChEMBL document CHEMBL1201862, “PubChem BioAssay data set” (2004).
Blank lines part the entries; values can stand above or below the molecule they belong to. Activity calls are given as the source filed them.

Columns and labels:
[1] = cytotoxicity in HEK-293T cells, dose response, cytotoxicity control for BCR NF-kB inhibitor project, luminescence, B-cell screen hits (AID 489021); format: functional, cell-based;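 further: HEK-293T cells carrying an NF-kB luciferase reporter; cells exposed to compound for about 14 hours before viability readout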
[2] = Counterscreen for IDE inhibitors: Luminescence-based cell-based high throughput dose response assay to identify compounds that are cytotoxic to HEK cells. [Related pubchem assays: 434962 (Primary screen (IDE inhibitors in singlicate)), 449730 (Counterscreen (Cytotoxicity in triplicate)), 435028 (Confirmation (IDE inhibitors in triplicate)) …; format: functional; conditions: HEK293
Insulin-degrading enzyme = target: T1, Insulin-degrading enzyme (Homo sapiens, UniProt P14735); test: Dose Response: Fluorescence polarization-based cell-based high throughput dose response assay for inhibitors of insulin-degrading enzyme (IDE). [Related pubchem assays: 434962 (Primary screen (IDE inhibitors in singlicate)), 449730 (Counterscreen (Cytotoxicity in triplicate)), 435028 (Confirmation (IDE inhibitors in triplicate)), 434984 (Summary …; format: functional
T1 sequence (P14735 whole entry): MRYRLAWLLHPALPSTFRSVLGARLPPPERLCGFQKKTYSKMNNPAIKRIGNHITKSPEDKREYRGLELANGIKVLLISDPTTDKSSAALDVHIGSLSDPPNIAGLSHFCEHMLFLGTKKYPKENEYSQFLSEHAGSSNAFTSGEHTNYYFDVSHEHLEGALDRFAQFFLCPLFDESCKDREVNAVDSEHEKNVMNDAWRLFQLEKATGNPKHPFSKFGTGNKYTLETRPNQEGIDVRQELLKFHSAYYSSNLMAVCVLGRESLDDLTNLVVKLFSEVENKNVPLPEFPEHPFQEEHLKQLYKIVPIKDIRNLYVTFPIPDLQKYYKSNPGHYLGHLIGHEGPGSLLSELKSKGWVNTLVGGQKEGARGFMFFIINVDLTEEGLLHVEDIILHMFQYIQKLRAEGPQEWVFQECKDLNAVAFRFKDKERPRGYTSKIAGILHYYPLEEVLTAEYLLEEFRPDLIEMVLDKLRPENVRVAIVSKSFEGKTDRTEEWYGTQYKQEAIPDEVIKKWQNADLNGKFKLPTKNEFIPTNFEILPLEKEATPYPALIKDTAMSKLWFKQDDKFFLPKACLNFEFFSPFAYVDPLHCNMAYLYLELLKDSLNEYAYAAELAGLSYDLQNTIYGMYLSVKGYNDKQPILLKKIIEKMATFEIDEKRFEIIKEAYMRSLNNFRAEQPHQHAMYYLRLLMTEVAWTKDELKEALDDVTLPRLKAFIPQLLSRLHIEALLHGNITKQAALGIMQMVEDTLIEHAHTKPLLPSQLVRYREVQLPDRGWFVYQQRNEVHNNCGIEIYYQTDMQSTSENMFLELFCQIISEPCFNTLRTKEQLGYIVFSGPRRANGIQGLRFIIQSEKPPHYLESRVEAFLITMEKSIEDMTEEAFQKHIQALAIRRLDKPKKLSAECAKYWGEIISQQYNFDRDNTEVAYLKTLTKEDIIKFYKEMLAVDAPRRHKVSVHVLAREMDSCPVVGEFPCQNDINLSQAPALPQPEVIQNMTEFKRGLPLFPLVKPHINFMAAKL

[3] = target: Neurotensin receptor type 1 (Homo sapiens, UniProt P30989); format: functional;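 further: Image-based confirmatory dose-response assay measuring agonist activity at NTR1; NTR1-expressing U2OS osteosarcoma cells imaged for beta-arrestin GFP spot formation; agonist potency where compounds increase beta-arrestin recruitment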
Aminopeptidase N = target: T2, Aminopeptidase N (Plasmodium falciparum FcB1/Columbia, UniProt O96935); test: P. falciparum M1AAP inhibitors, biochemical, fluorogenic H-Leu-NHMec substrate, 1536-well (AID 1445); set-up: species or system Plasmodium falciparum 3D7, 3D7
T2 sequence (O96935 whole entry): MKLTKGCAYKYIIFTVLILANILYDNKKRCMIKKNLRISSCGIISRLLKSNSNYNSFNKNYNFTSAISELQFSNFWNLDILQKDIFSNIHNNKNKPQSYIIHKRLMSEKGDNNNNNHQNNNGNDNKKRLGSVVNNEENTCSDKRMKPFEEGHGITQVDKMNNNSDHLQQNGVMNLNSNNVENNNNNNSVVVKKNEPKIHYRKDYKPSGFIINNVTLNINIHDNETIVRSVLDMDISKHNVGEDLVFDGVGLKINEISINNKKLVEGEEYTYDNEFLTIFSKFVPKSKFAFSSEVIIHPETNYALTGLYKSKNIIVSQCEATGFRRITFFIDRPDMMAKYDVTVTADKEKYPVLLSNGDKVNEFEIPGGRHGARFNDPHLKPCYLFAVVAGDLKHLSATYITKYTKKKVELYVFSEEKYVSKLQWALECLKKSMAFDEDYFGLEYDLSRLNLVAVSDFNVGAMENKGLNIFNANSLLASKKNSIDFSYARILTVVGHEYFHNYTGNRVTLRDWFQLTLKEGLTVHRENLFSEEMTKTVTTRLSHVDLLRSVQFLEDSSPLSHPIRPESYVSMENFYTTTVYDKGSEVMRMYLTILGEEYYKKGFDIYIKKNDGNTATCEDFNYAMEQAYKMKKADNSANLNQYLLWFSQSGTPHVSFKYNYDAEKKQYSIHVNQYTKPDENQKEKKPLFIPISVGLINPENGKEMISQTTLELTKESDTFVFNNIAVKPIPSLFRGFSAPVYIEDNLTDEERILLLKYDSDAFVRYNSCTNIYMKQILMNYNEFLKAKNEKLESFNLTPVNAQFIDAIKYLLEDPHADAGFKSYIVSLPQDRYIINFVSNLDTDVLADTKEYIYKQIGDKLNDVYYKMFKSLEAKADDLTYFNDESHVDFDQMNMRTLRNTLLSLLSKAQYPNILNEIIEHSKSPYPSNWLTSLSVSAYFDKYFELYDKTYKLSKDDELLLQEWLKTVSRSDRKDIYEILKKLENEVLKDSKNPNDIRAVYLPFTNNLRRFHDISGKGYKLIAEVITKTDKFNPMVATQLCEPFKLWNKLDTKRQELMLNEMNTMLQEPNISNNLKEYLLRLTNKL

[4] = target: T3, Apoptotic protease-activating factor 1 (Homo sapiens, UniProt O14727); format: functional
T3 sequence (O14727 whole entry): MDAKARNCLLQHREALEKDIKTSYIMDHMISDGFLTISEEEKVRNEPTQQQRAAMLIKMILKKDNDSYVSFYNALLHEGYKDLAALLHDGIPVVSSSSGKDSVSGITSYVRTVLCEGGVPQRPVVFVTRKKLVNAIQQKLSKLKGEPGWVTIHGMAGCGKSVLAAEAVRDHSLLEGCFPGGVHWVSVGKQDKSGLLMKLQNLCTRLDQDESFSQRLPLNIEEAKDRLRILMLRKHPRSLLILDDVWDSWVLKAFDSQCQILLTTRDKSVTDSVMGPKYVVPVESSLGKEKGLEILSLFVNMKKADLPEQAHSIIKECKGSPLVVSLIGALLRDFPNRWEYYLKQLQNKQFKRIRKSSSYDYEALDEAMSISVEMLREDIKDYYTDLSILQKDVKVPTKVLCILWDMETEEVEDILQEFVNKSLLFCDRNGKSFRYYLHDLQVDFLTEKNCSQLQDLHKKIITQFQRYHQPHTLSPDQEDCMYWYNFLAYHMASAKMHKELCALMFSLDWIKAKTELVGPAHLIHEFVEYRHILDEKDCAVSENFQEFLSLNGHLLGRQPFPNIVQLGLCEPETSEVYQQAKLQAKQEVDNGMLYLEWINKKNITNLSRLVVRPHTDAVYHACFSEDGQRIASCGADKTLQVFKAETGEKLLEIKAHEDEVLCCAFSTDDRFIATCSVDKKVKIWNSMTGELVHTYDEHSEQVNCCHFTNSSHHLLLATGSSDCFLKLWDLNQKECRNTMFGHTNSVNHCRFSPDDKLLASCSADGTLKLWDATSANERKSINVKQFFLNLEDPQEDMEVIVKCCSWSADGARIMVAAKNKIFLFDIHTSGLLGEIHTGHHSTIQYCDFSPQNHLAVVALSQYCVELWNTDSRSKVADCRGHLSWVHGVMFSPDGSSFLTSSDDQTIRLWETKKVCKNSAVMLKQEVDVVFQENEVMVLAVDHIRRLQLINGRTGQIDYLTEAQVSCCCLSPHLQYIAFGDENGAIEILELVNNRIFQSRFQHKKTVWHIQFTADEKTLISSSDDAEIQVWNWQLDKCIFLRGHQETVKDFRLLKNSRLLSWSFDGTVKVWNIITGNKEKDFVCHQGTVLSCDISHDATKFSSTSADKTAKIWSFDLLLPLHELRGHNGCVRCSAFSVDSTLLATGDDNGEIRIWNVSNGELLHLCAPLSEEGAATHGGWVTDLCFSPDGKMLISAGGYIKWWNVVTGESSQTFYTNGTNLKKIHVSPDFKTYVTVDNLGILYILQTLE

[5] = target: T4, Ubiquitin-conjugating enzyme E2 N (Homo sapiens, UniProt P61088); format: functional;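 further: Dose-response confirmation in a TR-FRET assay detecting UBC13-driven polyubiquitin chain formation, inhibition measured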
T4 sequence (P61088 whole entry): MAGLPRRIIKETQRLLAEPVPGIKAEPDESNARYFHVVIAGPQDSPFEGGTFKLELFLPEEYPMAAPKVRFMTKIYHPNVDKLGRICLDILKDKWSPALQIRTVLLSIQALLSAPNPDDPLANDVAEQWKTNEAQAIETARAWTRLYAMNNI

[6] = HEp-2 cell cytotoxicity, dose response, cytotoxicity control for RSV inhibitor project, HTS (AID 2410); format: functional; conditions: human respiratory syncytial virus
Coagulation factor XII = target: T5, Coagulation factor XII (Homo sapiens, UniProt P00748); format: functional;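 further: activated factor XIIa alpha cleaving a fluorogenic AMC peptide substrate; inhibitor potency from loss of enzyme activity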
T5 sequence (P00748 whole entry): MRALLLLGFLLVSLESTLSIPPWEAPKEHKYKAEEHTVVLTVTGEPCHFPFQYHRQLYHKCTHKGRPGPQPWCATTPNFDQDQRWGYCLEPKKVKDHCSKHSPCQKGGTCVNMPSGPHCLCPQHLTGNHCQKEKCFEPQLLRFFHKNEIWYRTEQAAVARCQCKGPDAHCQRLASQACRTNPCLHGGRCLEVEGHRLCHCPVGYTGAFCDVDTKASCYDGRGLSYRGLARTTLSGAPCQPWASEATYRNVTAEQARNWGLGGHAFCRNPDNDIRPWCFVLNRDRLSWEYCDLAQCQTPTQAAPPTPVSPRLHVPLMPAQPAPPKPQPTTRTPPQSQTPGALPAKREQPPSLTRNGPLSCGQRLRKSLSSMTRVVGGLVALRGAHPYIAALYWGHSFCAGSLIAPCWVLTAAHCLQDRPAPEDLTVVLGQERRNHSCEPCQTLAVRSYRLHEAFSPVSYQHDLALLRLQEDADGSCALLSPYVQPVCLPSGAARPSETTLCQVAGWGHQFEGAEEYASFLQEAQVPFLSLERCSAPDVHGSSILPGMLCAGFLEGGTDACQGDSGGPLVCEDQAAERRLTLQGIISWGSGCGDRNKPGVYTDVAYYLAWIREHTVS

[7] = target: Photoreceptor-specific nuclear receptor (Homo sapiens, UniProt Q9Y5X4); format: functional;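 further: potency for compounds that break the NR2E3 corepressor complex and count as activators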
[8] = target: Peroxisome proliferator-activated receptor gamma/Nuclear receptor corepressor 2 (Homo sapiens, UniProt P37231+Q9Y618); format: functional
Chain of Peroxisome proliferator-activated receptor gamma/Nuclear receptor corepressor 2 (P37231 whole entry): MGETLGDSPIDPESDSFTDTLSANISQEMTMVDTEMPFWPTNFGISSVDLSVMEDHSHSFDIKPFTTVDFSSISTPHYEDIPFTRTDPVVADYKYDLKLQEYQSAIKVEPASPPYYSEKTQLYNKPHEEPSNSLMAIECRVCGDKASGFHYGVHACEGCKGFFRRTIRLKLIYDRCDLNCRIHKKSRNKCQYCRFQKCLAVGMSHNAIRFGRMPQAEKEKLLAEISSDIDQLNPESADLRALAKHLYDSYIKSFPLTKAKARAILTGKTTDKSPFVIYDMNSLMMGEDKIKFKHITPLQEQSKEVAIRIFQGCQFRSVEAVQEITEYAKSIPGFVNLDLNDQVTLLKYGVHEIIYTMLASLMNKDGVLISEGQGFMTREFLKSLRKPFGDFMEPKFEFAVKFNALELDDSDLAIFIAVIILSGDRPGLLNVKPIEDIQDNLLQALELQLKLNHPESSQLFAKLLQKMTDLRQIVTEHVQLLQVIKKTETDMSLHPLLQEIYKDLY
Chain of Peroxisome proliferator-activated receptor gamma/Nuclear receptor corepressor 2 (Q9Y618 whole entry): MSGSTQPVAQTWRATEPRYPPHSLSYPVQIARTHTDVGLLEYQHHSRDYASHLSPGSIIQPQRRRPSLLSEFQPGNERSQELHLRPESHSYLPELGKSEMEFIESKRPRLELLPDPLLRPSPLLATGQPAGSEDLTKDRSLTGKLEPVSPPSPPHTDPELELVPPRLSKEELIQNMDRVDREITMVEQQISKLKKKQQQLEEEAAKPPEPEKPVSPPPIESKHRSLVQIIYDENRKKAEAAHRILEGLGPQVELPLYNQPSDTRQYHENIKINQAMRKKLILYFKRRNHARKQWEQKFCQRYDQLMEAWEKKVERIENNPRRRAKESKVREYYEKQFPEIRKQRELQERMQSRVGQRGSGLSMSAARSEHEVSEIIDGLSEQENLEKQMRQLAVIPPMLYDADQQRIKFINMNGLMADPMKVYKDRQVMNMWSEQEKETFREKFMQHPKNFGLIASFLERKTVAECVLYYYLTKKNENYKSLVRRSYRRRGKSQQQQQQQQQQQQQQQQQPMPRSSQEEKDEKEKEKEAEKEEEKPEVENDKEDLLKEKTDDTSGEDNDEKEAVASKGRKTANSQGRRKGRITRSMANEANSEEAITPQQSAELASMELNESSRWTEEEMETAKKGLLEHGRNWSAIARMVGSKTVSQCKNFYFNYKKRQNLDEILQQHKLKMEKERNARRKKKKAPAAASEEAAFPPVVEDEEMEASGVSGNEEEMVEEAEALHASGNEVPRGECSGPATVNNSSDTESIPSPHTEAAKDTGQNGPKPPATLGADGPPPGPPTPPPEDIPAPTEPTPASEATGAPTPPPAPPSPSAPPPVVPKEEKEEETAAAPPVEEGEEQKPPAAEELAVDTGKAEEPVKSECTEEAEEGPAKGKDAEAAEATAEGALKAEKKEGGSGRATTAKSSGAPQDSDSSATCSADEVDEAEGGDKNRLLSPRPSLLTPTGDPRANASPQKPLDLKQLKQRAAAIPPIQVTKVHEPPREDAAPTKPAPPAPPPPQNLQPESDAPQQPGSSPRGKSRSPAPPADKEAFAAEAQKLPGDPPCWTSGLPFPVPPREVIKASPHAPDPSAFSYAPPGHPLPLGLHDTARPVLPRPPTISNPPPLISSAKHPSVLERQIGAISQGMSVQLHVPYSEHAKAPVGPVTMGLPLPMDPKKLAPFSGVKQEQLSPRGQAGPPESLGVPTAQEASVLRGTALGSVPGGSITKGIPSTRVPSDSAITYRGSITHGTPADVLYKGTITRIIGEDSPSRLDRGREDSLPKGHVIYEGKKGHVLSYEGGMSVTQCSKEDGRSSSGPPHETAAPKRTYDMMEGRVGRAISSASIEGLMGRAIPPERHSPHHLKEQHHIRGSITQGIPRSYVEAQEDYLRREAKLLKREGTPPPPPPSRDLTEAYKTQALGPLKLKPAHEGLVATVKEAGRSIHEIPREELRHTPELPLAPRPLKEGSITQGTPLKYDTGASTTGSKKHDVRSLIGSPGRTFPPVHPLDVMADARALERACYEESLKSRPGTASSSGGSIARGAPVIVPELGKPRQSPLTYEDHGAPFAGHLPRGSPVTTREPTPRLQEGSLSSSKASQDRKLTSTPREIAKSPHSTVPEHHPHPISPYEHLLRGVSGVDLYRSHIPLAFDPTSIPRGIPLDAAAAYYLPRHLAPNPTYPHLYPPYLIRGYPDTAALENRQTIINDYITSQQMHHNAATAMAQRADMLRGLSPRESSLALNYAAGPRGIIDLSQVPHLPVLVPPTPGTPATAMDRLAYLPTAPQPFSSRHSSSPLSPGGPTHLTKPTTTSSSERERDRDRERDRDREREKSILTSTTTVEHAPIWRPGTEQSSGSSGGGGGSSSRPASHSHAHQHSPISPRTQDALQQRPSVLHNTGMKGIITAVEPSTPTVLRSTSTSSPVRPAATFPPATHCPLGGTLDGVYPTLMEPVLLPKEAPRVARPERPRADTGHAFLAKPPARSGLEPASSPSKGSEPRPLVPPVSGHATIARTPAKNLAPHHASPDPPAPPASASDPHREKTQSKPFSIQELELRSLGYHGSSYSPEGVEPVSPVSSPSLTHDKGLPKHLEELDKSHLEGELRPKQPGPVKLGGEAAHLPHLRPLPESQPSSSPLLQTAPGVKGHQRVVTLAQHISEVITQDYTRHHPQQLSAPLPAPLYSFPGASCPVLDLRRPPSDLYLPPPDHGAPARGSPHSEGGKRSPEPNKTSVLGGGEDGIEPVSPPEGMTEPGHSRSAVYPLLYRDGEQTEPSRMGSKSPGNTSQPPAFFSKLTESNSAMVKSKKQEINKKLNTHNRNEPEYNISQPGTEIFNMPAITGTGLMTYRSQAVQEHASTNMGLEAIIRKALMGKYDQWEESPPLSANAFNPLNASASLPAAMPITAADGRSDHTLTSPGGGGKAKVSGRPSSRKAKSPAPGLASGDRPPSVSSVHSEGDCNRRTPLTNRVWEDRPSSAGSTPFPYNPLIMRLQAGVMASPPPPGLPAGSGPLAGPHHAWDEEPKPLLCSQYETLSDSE

Chain of Neurotensin receptor type 1 (P30989 whole entry): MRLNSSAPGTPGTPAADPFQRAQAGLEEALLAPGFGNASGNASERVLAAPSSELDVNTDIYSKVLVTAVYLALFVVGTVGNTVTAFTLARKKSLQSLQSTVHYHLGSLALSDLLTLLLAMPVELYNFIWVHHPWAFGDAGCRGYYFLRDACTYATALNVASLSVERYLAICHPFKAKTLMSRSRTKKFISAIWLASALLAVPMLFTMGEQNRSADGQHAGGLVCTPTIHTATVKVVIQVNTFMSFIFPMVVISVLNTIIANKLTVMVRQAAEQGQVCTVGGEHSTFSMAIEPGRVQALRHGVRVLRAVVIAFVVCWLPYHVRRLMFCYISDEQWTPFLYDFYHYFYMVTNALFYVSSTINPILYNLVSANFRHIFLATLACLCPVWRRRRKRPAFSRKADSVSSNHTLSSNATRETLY
Chain of Photoreceptor-specific nuclear receptor (Q9Y5X4 whole entry): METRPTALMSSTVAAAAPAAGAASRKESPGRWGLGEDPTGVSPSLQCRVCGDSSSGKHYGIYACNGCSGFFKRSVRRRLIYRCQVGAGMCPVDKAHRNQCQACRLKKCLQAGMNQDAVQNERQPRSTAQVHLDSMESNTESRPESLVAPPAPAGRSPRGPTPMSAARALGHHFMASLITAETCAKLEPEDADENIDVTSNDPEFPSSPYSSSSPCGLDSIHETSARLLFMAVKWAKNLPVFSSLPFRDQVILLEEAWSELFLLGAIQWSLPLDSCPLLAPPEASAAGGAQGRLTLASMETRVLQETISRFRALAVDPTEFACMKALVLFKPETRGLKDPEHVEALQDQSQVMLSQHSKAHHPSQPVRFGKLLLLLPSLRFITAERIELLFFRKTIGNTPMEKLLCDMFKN

SMILES: CCOC(=O)N1CCN(c2[nH]cnc3c4cc(OC)ccc4nc2-3)CC1
IC50 [1]: 56.9 µM (inactive)
IC50 [2]: 18.4 µM (not active)
IC50 (Insulin-degrading enzyme): 9.15 µM (active)

EC50 [3]: 9.68 µM (active)
SMILES: CCOc1ccc(C(=O)Nc2nnc(NC(=S)Nc3ccccc3)s2)cc1

SMILES: Cc1cccc(N2C(=O)/C(=C/Nc3ccccc3-c3nnc(S)nc3O)c3ccccc3C2=O)n1
IC50 (Aminopeptidase N): 60.4 µM (active)
IC50 [2]: > 55.7 µM (not active)
IC50 (Insulin-degrading enzyme): 12.2 µM (not active)

SMILES: Cc1ccc(NC(=O)CN(C)C(=O)c2ccc3[nH]c4c(c3c2)CC(C)CC4)cc1 (centres undefined)
IC50 [4]: > 100 µM (inactive)
IC50 [5]: > 20 µM (inactive)
IC50 (cells): 22.2 µM (active)
CC50 [6]: 28.2 µM (active)

IC50 (Coagulation factor XII): > 50 µM (inactive)
IC50 [7]: > 39.8 µM (not active)
IC50 [8]: 4.7 µM (active)
SMILES: Cc1nn(CCc2nnn[nH]2)c2nc(-c3ccc(Br)cc3)cc(C(F)(F)F)c12
